Assay results reported in US20230382871A1, “CSF1R KINASE INHIBITOR AND USE THEREOF” (SHANGHAI INSTITUTE OF MATERIA MEDICA, CHINESE ACADEMY OF …, priority 2020, published 2023).
Where “and” joins values, the source holds several entries; their conditions need not be identical. Equal values may be shown once.

Legend:
[1] = test system: human colorectal cancer HT-29 subcutaneous xenografts; test: Human colorectal cancer HT-29 subcutaneous xenografts in nude mice; type: in vivo, BALB/c nude mice; details: for Body Weight (g) D 21 / RTV (mean ± SD) / TV (mm3, mean ± SD) D 21: D 21; for T/C (%): Day 21
Source text: BALB/c female nude mice of 6 weeks old were used, and were provided by Shanghai Lingchang Biotechnology Co., Ltd.
Human colorectal cancer HT-29 cells were subcutaneously inoculated into the right axillary fossa of a nude mouse (5×10^6 cells/mouse). After a xenograft was formed, the tumor was transferred to a nude mouse for 1 passage.
Tumor tissues at the vigorous growth stage were removed and cut into pieces of approximately 1.5 mm^3. The tumor fragments were inoculated subcutaneously into the right axillary fossa of nude mice under aseptic conditions. The diameters of the subcutaneous xenografts in nude mice were measured with a vernier caliper. The animals were randomly grouped after the xenografts reached an average volume of about 120 mm^3. Compound I was administered orally at doses of 20 mg/kg, 10 mg/kg and 5 mg/kg twice a day for 21 consecutive days. An equal volume of a blank preparation was administered orally twice a day for 21 consecutive days. The positive control drug Axitinib was administered orally at a dose of 40 mg/kg group twice a day for 21 consecutive days. An equal volume of water for injection was administered to the animals in the solvent group. Throughout the experiment, the diameters of the xenografts were measured twice a week and the mice were weighed at the same time. The tumor volume (TV) was calculated as TV=½×a×b^2, where “a” and “b” denote the length and width of a tumor, respectively. The relative tumor volume (RTV) was calculated from the measurement results with the calculation formula RTV=Vt/V0, in which V0 is the tumor volume measured upon administration after grouping (i.e., D0) and Vt is the tumor volume from each measurement. The evaluation index of anti-tumor activity is the relative tumor proliferation rate T/C (%), which is calculated as T/C (%)=(TRTV/CRTV)×100%, in which TRTV denotes the RTV from the treatment group and CRTV denotes the RTV from solvent group.

[2] = test system: macrophage marker F4/80 in U87MG tumor tissues; test: Immunohistochemistry of macrophage marker F4/80 in U87MG tumor tissues; type: in vivo, nude mice; details: 40 mg/kg, compared with blank preparation group
Experimental: (§1) At the end of the in vivo experiments, U87MG and HT-29 xenografts in nude mice were removed and fixed with […] to prepare paraffin sections.
(§2) Expression of individual proteins was assessed using multiplicative quick score method (MQS). This evaluation method takes into account both the staining intensity and the staining range. The method estimates the proportion of positive cells and gives a range score from 1 to 6 (1=1%-4%; 2=5%-19%; 3=20%-39%; 4=40%-59%; 5=60%-79%; 6=80%-100%). The average intensity score of positive stained cells was 0 to 3 (0=no staining; 1=weak staining; 2=moderate staining; 3=strong staining). The total score a (minimum 0 and maximum 18) is then calculated by multiplying the range score by the intensity score.
(§3) For detecting the changes in the macrophage marker F4/80 and M2-type macrophage marker CD206 in the U87MG tumor tissues, quantitative analysis (solvent: n=6, blank preparation: n=6, Compound I (10 mg/kg): n=6, Compound I (20 mg/kg): n=6, Compound I (40 mg/kg): n=6, Axitinib: n=4) was performed on all sections and the experimental data were analyzed for significant differences using the t-test. * denotes p<0.05 as compared with the blank preparation group, ** denotes p<0.01 as compared with the blank preparation group, and denotes p<0.001 as compared with the blank preparation group.

[3] = test system: M2-type macrophage marker CD206 in U87MG tumor tissues; test: Immunohistochemistry of M2-type macrophage marker CD206 in U87MG tumor tissues; type: in vivo, nude mice
Experimental: as §1, §2, §3

[4] = test system: macrophage marker F4/80 in HT-29 tumor tissues; test: Immunohistochemistry of macrophage marker F4/80 in HT-29 tumor tissues; type: in vivo, nude mice; details: Compound I 5, 10, 20 mg/kg; Axitinib 40 mg/kg
Experimental: At the end of the in vivo experiments, U87MG and HT-29 xenografts in nude mice were removed and fixed with […] to prepare paraffin sections. Expression of individual proteins was assessed using multiplicative quick score method (MQS). This evaluation method takes into account both the staining intensity and the staining range. […] The average intensity score of positive stained cells was 0 to 3 (0=no staining; 1=weak staining; 2=moderate staining; 3=strong staining). The total score a (minimum 0 and maximum 18) is then calculated by multiplying the range score by the intensity score.

[5] = test system: M2-type macrophage marker CD206 in HT-29 tumor tissues; test: Immunohistochemistry of M2-type macrophage marker CD206 in HT-29 tumor tissues; type: in vivo, nude mice; details: Compound I 5, 10, 20 mg/kg; Axitinib 40 mg/kg
Experimental: as §1, §2
as §3, with “the HT-29” for “the U87MG”, “(solvent: n=12,” for “(solvent: n=6,”, “preparation: n=6, Compound I (5 mg/kg):” for “preparation:”, “n=6,” for “n=6, Compound I (40 mg/kg): n=6,”, “Axitinib: n=6)” for “Axitinib: n=4)”

[6] = test system: human glioma U87MG brain in situ transplantation; test: Survival in U87MG brain in situ transplantation model in nude mice; type: in vivo, BALB/cA nude mice; details: for ILS (%), Increase in Life Span: vs solvent group MST
[7] = test system: solid tumors, such as brain gliomas; test: Clinical trial, preliminary efficacy; type: in vivo; details: particularly high-grade brain gliomas, data not shown
[8] = 40 mg/kg, implantation day as Day 0

In the case of Cc1cc(NC(=O)c2cccc3cc(-c4cccc5[nH]nc(N)c45)ccc23)ccc1F [Compound I], the “Body Weight (g) D 0” value ([1]; 5 mg/kg bid × 21 po) is reported as 19.7 g, the “TV (mm3, mean ± SD) D 0” value ([1]; 5 mg/kg bid × 21 po) is reported as 113 ± 28 mm3 and the “Body Weight (g) D 21” value ([1]; 5 mg/kg bid × 21 po) is reported as 18.6 g. For the same compound, the “RTV (mean ± SD)” value ([1]; 5 mg/kg bid × 21 po) was 3.76 ± 0.87, the “TV (mm3, mean ± SD) D 21” value ([1]; 5 mg/kg bid × 21 po) was 427 ± 157 mm3 and the “T/C (%)” value ([1]; 5 mg/kg bid × 21 po) was 42.70%. The “Body Weight (g) D 0” value ([1]; 10 mg/kg bid × 21 po) was 19.8 g, the “TV (mm3, mean ± SD) D 0” value ([1]; 10 mg/kg bid × 21 po) was 120 ± 33 mm3 and the “Body Weight (g) D 21” value ([1]; 10 mg/kg bid × 21 po) was 18.1 g. The “RTV (mean ± SD)” value ([1]; 10 mg/kg bid × 21 po) was 2.75 ± 1.04, the “TV (mm3, mean ± SD) D 21” value ([1]; 10 mg/kg bid × 21 po) was 336 ± 173 mm3 and the “T/C (%)” value ([1]; 10 mg/kg bid × 21 po) was 31.27%. The “Body Weight (g) D 0” value ([1]; 20 mg/kg bid × 21 po) was 20.1 g, the “TV (mm3, mean ± SD) D 0” value ([1]; 20 mg/kg bid × 21 po) was 121 ± 35 mm3 and the “Body Weight (g) D 21” value ([1]; 20 mg/kg bid × 21 po) was 18.2 g. For the same compound, the “RTV (mean ± SD)” value ([1]; 20 mg/kg bid × 21 po) was 1.53 ± 0.25, the “TV (mm3, mean ± SD) D 21” value ([1]; 20 mg/kg bid × 21 po) was 188 ± 69 mm3 and the “T/C (%)” value ([1]; 20 mg/kg bid × 21 po) was 17.38%. The “expression of F4/80 in macrophages, U87MG tumor tissue” value [2] was “significantly reduced”, the “inhibition rate of CD206 expression, U87MG tumor tissue” value ([3]; 10 mg/kg dose group) was 34.48% and the “inhibition rate of CD206 expression, U87MG tumor tissue” value ([3]; 40 mg/kg dose group) was 70.69%. The “expression of F4/80, HT-29 tumor tissue” value [4] was “inhibited the expression of F4/80 and CD206 in a dose-dependent manner”, the “expression of CD206, HT-29 tumor tissue” value [5] was “inhibited the expression of F4/80 and CD206 in a dose-dependent manner” and the “Median survival time, MST” value ([6]; 20 mg/kg po twice a day from Day 8) was 54 days and 54.0 days. For the same compound, the “ILS (%), Increase in Life Span” value ([6]; 20 mg/kg) was 17.39%, the “Median survival time, MST” value ([6]; 40 mg/kg po twice a day from Day 8) was 58.5 days and the “day of first death in the group” value [6, 8] was 43 days. The “day of last death in the group” value [6, 8] was 75 days, the “ILS (%), Increase in Life Span” value ([6]; 40 mg/kg) was 27.17% and the “preliminary efficacy in clinical trial” value [7] was “good therapeutic efficacy”.
